Here are results for four compounds from publication PMC6149664, “Synthesis and In Vitro Antimycobacterial Activity of Novel N-Arylpiperazines Containing an Ethane-1,2-diyl Connecting Chain” (Molecules : A Journal of Synthetic Chemistry and Natural …, 2017).

Where two headings read alike, the source gives them in different places.

A short description of series [1]: Isocratic RP-HPLC lipophilicity (k, log k, extrapolated log kw, slope S), MeOH/water mobile phases. The class given is physicochemical. As to conditions: for log kw (RP-HPLC): extrapolated to 100% water from log k vs ϕM (MeOH); for S, slope (RP-HPLC): slope of regression log k vs ϕM, alternative measure of lipophilicity. The source says:
Octadecyl-functionalized silica gel was used as a stationary phase in the RP-HPLC evaluation of 8a–h. A gradient of two solvents at different volume ratios modulated retention properties of a stationary phase. Liquid binary mixtures of methanol (MeOH) with water were employed as mobile phases in a present isocratic RP-HPLC method. The MeOH organic modifier was preferred because of making a reversed-phase chromatographic system closer to the octan-1-ol/water partitioning one in terms of sensitivity to H-bond donor properties of investigated compounds [39, 40]. The modifier was applied in different volume concentrations that varied from 60% to 85% (v/v).
The chromatographic HPLC-Diode Array Detection apparatus for the determination of capacity (retention) factor k (log k) values was the LC Agilent Infinity System (Agilent Technologies, Santa Clara, CA, USA) equipped with a Infinity 1260 gradient pump with a degasser, a 1260 HiPals automatic injector, a column thermostat 1290, a photo-diode array detector Infinity 1290 (all the equipments were obtained by Agilent Technologies) and personal computer with the Agilent ChemStation software (Agilent Technologies) for the registration of values and calibration procedures. The chromatographic column Eclipse plus RP C18, 150 × 4.6 mm i.d., a 5 μm particle size (Agilent Technologies), was used and thermostated at 35 °C.
The analyses were performed at pressure ranged from 7 MPa to 15 MPa. The detection wavelength was set to 260 nm, injection sample volume was 5 μL with a flow rate of 1.0 mL/min in all RP-HPLC analyses.
LC-MS Methanol (J. T. Baker Chemicals Co., Phillipsburg, NJ, USA) and HPLC-quality water (Sigma-Aldrich, Darmstadt, Germany) were used for a preparation of mobile phases. Water was firstly deionized and purified by the Millipore Simplicity 185 Ultrapure water purification system (Millipore, Billerica, MA, USA).
Methanol (MeOH)/water mobile phases with a various volume ratio of the organic modifier and water (60:40, 70:30, 80:20 and 85:15, respectively; v/v) were chosen. A concentration of all analyzed compounds 8a–h was c = 0.25 mg/mL. An queous solution of potassium nitrate (c = 0.1 M) was used for the determination of dead time t0 = 1.295 min. The capacity (retention) factor k values (Table 1) were calculated by Equation (6) as follows:k = (tr – t0)/t0(6) where the tr and t0 parameters were the retention times of a solute (tr) and unretained compound (potassium nitrate; t0), respectively. The observed retention (tr) and dead (t0) times were means of three independent determinations.
The log kw values, i.e., the logarithms of extrapolated capacity (retention) factors for 100% water in the isocratic RP-HPLC, were determined from intercepts of linear plots between the log k and ϕM (a volume fraction of an organic modifier in the isocratic elution RP-HPLC) according to Equation (7): log k = log kw – S × ϕM(7) where the S parameter represented the slope of a regression curve, which was related to the solvent strength of a pure organic solvent.

Series [2] is classed as physicochemical. Further details: key to RM (RP-TLC): RM = log(1/Rf - 1), from Rf in HCl/acetone mobile phase. As for the experimental part:
In the RP-TLC, silica gel plates impregnated by a hand with a variously concentrated silicone oil in heptane (a strong hydrophobic agent) were used as a non-polar stationary phase. Optimal differences in RM values within both homological groups 8a–d and 8e–h were observed if 1% silicone oil in heptane was chosen (Tables 1 and S1 in Supplementary Materials).
The RM values were calculated according to Equation (5) from the Rf parameters observed in a SM mobile phase: hydrochloric acid (c = 1.0 M)/acetone (4:1, v/v):RM = log (1/Rf – 1)(5)
For the experiments, aluminium sheets pre-coated with silica gel 60 F254 (0.25 mm thickness; Merck) were impregnated by a variously concentrated silicone oil in heptane, which ranged from 1% to 5%. The plates were separately spotted with 2 µL of methanolic solutions of each compound (c = 1 mg/mL), starting points were 1 cm from a bottom edge of these plates. The chromatographic plates were developed in glass developing chambers saturated for 30 min by the SM mobile phase. Development was carried out upon 15 cm from a starting line by an ascending technique. After being developed, the plates were dried at room temperature. Detection of zones was performed under iodine vapours/UV light at λ = 254 nm. Each experiment was run in triplicate at 21 °C, the RM values of analytes were calculated separately for each run.
Optimal differences in RM values within both homological groups 8a–d and 8e–h were observed if 1% silicone oil in heptane was chosen. The Rfs were found in a range from 0.19 (8h) to 0.78 (8a; Table 1). All the calculated average RM values were summarized in Table S1 (Supplementary Materials).

In series [3] the test system is M. avium hominissuis CIT10/08. Nature of the series: In vitro antimycobacterial MIC (IC90), alamarBlue 96-well assay in Middlebrook broth. The class given is cell-based, Mycobacterium avium hominissuis. The settings on record: Mycobacterium avium, 168 h, 7 days incubation, read-out: MIC, MAH CIT10/08.
The subject of series [4] is M. avium intracellulare ATCC 13950. Described as above. The class given is cell-based, Mycobacterium avium intracellulare. The settings on record: Mycobacterium avium, ATCC13950, 168 h, 7 days incubation, read-out: MIC, MAI ATCC 13950.
In series [5] the test system is M. avium CNCTC My 330/80 (identical with ATCC 25291). Nature of the series: In vitro antimycobacterial MIC, dilution-micromethod in Šula semisynthetic medium. The settings on record: Mycobacterium avium, read-out: MIC, MA My 330/88. The class given is cell-based.
Series [6] concerns M. kansasii 6 509/96 clinical isolate. The series is described as above. The class given is cell-based. As to conditions: Mycobacterium kansasii, read-out: MIC, MK 6 509/96.
In series [7] the test system is M. avium subsp. paratuberculosis CIT03. Nature of the series: microbe, parasite or virus in culture. The class given is cell-based. As to conditions: Mycobacterium avium, 168 h; 7 days incubation, alamarBlue; MIC = IC90; read-out: MIC, MAP CIT03.
The test system of a further series is M. kansasii CIT11/06. Nature of the series: In vitro antimycobacterial MIC (IC90), alamarBlue 96-well assay in Middlebrook broth. The class given is cell-based, Mycobacterium kansasii. As to conditions: Mycobacterium kansasii, CIT11/06, 168 h, 7 days incubation, read-out: MIC, MK CIT11/06.
Where [8] appears, read: mobile phase MeOH/water 60:40 (v/v).
Setting [9] is: mobile phase MeOH/water 70:30 (v/v).
[10] abbreviates: mobile phase MeOH/water 80:20 (v/v).
The mark [11] stands for this setting: mobile phase MeOH/water 85:15 (v/v).
[12] abbreviates: silica gel plates impregnated with 3% silicone oil in heptane.
[13] abbreviates: silica gel plates impregnated with 5% silicone oil in heptane.
Where [14] appears, read: ATCC25291, 336 h, 14 d cultivation.
[15] abbreviates: ATCC25291, 504 h, 21 d cultivation.

Take `CCOC(=O)Nc1cccc(C(O)CN2CCN(c3ccccc3F)CC2)c1.Cl` (stereo not shown) [8b, 1-(2-{3-[(Ethoxycarbonyl)amino]phenyl}-2-hydroxyethyl)-4-(2-fluorophenyl)piperazin-1-ium chloride]: the “capacity factor k (RP-HPLC)” value in series [1] (MeOH/water 60:40 (v/v)) was 4.951; in series [1] (MeOH/water 70:30 (v/v)), 2.778; in series [1] (MeOH/water 80:20 (v/v)) it was 1.245; in series [1] (MeOH/water 85:15 (v/v)) it was 0.879. For the same compound, the “log kw (RP-HPLC)” value in series [1] was 2.546. Besides, the “log k (RP-HPLC)” value in series [1] (setting [8]) is given as 0.695; in series [1] (setting [9]) it was 0.444; in series [1] (setting [10]), 0.095; in series [1] (setting [11]), −0.056. Further, the “S, slope (RP-HPLC)” value in series [1] is on record as 3.0529. Also, the “RM (RP-TLC)” value is on record as -0.03 in series [2] (setting [12]) and 0.11 in series [2] (setting [13]). The MIC in series [3] was > 590 µM; in series [4], > 590 µM; in series [5] (setting [14]) it was 250 µM; in series [5] (setting [15]), 250 µM; in series [6] (168 h, 7 d cultivation), 62.5 µM; in series [6] (336 h, 14 d cultivation) it was 250 µM. The MIC in series [6] (504 h, 21 d cultivation) was 250 µM; in series [7], > 590 µM; in the series on M. kansasii CIT11/06, 295 µM.

In the case of `CCCOC(=O)Nc1ccc(C(O)CN2CCN(c3ccccc3F)CC2)cc1.Cl` (stereo not shown) [8g, 1-(2-Hydroxy-2-{4-[(propoxycarbonyl)amino]phenyl}ethyl)-4-(2-fluorophenyl)piperazin-1-ium chloride], the “capacity factor k (RP-HPLC)” value in series [1] (MeOH/water 60:40 (v/v)) is 5.394; in series [1] (MeOH/water 70:30 (v/v)), 3.108; in series [1] (MeOH/water 80:20 (v/v)) it was 1.342; in series [1] (MeOH/water 85:15 (v/v)), 0.956. Also, the “log kw (RP-HPLC)” value in series [1] was 2.600. Moreover, the “log k (RP-HPLC)” value in series [1] (setting [8]) is recorded as 0.732; in series [1] (setting [9]) it was 0.492; in series [1] (setting [10]), 0.128; in series [1] (setting [11]), −0.020. For the same compound, the “S, slope (RP-HPLC)” value in series [1] is given as 3.0739. For the same compound, in series [2], the “RM, lipophilicity index (RP-TLC)” value came to 0.39. Moreover, the “RM (RP-TLC)” value in series [2] (setting [12]) was found to be 0.58; in series [2] (setting [13]), 0.55. Further, the MIC is > 571 µM in series [3]; > 71 µM in series [4]; > 250 µM in series [5] (setting [14]); > 250 µM in series [5] (setting [15]); 125 µM in series [6] (168 h, 7 d cultivation); > 250 µM in series [6] (336 h, 14 d cultivation). Besides, the MIC is > 250 µM in series [6] (504 h, 21 d cultivation); > 571 µM in series [7]; > 571 µM in the series with M. kansasii CIT11/06.

With `CCCOC(=O)Nc1cccc(C(O)CN2CCN(c3ccccc3F)CC2)c1.Cl` (stereo not shown) [8c, 1-(2-Hydroxy-2-{3-[(propoxycarbonyl)amino]phenyl}ethyl)-4-(2-fluorophenyl)piperazin-1-ium chloride], the “capacity factor k (RP-HPLC)” value in series [1] (MeOH/water 60:40 (v/v)) was 5.898; in series [1] (MeOH/water 70:30 (v/v)), 3.561; in series [1] (MeOH/water 80:20 (v/v)), 1.466; in series [1] (MeOH/water 85:15 (v/v)) it was 1.023. For the same compound, the “log kw (RP-HPLC)” value in series [1] is reported as 2.679. For the same compound, the “log k (RP-HPLC)” value in series [1] (setting [8]) is listed as 0.771; in series [1] (setting [9]), 0.552; in series [1] (setting [10]) it was 0.166; in series [1] (setting [11]), 0.010. The “S, slope (RP-HPLC)” value in series [1] is reported as 3.1244. For the same compound, the “RM (RP-TLC)” value in series [2] (setting [12]) came out at 0.42; in series [2] (setting [13]), 0.44. Also, the MIC in series [3] is > 571 µM; in series [4], > 571 µM; in series [5] (setting [14]), 125 µM; in series [5] (setting [15]) it was 250 µM; in series [6] (168 h, 7 d cultivation), 32 µM; in series [6] (336 h, 14 d cultivation), 125 µM. For the same compound, the MIC was 125 µM in series [6] (504 h, 21 d cultivation); > 571 µM in series [7]; > 571 µM in the series with M. kansasii CIT11/06.

For `COC(=O)Nc1ccc(C(O)CN2CCN(c3ccccc3F)CC2)cc1.Cl` (stereo not shown) [8e, 1-(2-Hydroxy-2-{4-[(methoxycarbonyl)amino]phenyl}ethyl)-4-(2-fluorophenyl)piperazin-1-ium chloride], the “capacity factor k (RP-HPLC)” value in series [1] (MeOH/water 60:40 (v/v)) was 3.098; in series [1] (MeOH/water 70:30 (v/v)), 1.456; in series [1] (MeOH/water 80:20 (v/v)), 0.822; in series [1] (MeOH/water 85:15 (v/v)), 0.637. In addition, in series [1], the “log kw (RP-HPLC)” value is recorded as 2.113. The “log k (RP-HPLC)” value in series [1] (setting [8]) is listed as 0.491; in series [1] (setting [9]), 0.163; in series [1] (setting [10]) it was −0.085; in series [1] (setting [11]) it was −0.196. In series [1], the “S, slope (RP-HPLC)” value is 2.7386. For the same compound, the “RM (RP-TLC)” value is reported as 0.19 in series [2] (setting [12]) and 0.25 in series [2] (setting [13]). The MIC in series [3] is > 610 µM; in series [4], > 610 µM; in series [5] (setting [14]), 250 µM; in series [5] (setting [15]), 500 µM; in series [6] (168 h, 7 d cultivation) it was 125 µM; in series [6] (336 h, 14 d cultivation), 500 µM. For the same compound, the MIC was 500 µM in series [6] (504 h, 21 d cultivation); > 610 µM in series [7]; > 610 µM with M. kansasii CIT11/06.
